For assay [1], the system named is ED-1-positive cells in the CNV lesions. The experiment in a line: Quantification of macrophage infiltration into CNV lesions. In kind it is in vivo, Brown-Norway rats. Here is the method:
(§1) To block CB, a specific CBD, Compound 11 described above, was used (R-tech Ueno, Ltd., Tokyo, Japan). After laser injury, the inhibitor (0.3 mg/kg BW) was administered to the animals by daily i.p. injections. As a control, some animals received the same regimen for the vehicle solution alone.
At 1, 3, and 7 days after laser injury and treatment with either CBD or vehicle solution, animals were perfused with 200 ml of PBS/kg BW under deep anesthesia. Subsequently, eyes were enucleated and fixed overnight with 4% PFA, and 10 μm frozen sections of the posterior segment, including the center portion of CNV lesions (6 lesions per eye), were prepared and pre-blocked (PBS containing 10% goat serum, 0.5% gelatin, 3% BSA, and 0.2% Tween 20). […] The photographs of CNV lesions were taken, and the numbers of ED-1-positive cells were counted. To obtain a quantitative index of macrophage numbers in CNV lesions, an optical density plot of the selected area was generated by a histogram graphing tool in the Photoshop imageanalysis software (version 6.0: Adobe Systems, Mountain View, Calif.), as described in the literature (for example, Sakurai et al. (2003) IOVS 44: 3578-85). […]

The test system of another assay is ICAM-1. The experiment in a line: ELISA of RPE-choroid complex after laser injury: ICAM-1. The class given is in vivo, rat. The settings on record: laser-treated animals, 3 days after laser injury; 0.3 mg/kg BW daily i.p. As for the experimental part:
as §1
The RPE-choroid complex was carefully isolated from eyes 3 days after photocoagulation and placed in 300 μl of lysis buffer supplemented with protease inhibitors and sonicated. The lysate was centrifuged at 15,000 rpm for 15 minutes at 4° C. and the levels of TNF-α, monocyte chemotactic protein (MCP)-1, and intercellular adhesion molecule (ICAM)-1 were determined with rat TNF-α (BI) bioscience), MCP-1 (BD bioscience) and ICAM-1 (R&D Systems, Minneapolis, Minn.) enzyme-linked immunosorbent assay (ELISA) kits according to the manufacturers' protocols. Total protein concentration was determined using a Bio-Rad Protein Assay Kit (Bio-Rad Laboratories Hercules, Calif.) and dilutions of bovine serum albumin (Bio-Rad Laboratories) as standards.
(An ELISA detects its analyte on a solid surface through an enzyme-linked reagent.)

Assay [2] concerns IL-1β-induced corneal angiogenesis. The experiment in a line: IL-1β-induced corneal angiogenesis. The class given is in vivo, BALB/c mice. Conditions: 0.3 mg/kg daily i.p.; compared with untreated controls. As for the experimental part: BALB/c mice were anesthetized by intraperitoneal (i.p.) injection of pentobarbital sodium (60 mg/kg). Hydron pellets (0.3 μl) containing 30 ng mouse IL-1β (401-ML, R&D Systems) were prepared and implanted into the corneas. Pellets were positioned 1 mm from the corneal limbus. Implanted eyes were treated with Bacitracin ophthalmic ointment (E. Fougera & Co.) to prevent infection. To block CB, mice received daily i.p. injections of a specific CBD. Compound II (R-tech Ueno Ltd., Tokyo, Japan) as described above. A daily dose of 0.3 mg/kg was administered at day 0 and continued until the sixth day after implantation. Two, four and six days after implantation, digital images of the corneal vessels were obtained and recorded using OpenLab software version 2.2.5 (Improvision Inc.) with standardized illumination and contrast and were saved onto disks. The quantitative analysis of new vessel growth in the mouse corneas was performed using Scion Image software (version 4.0.2, Scion Corp.).

The target in assay [3] is T1, monoamine oxidase (MAO)-A (Homo sapiens, UniProt P21397).
T1 sequence (P21397 1-527): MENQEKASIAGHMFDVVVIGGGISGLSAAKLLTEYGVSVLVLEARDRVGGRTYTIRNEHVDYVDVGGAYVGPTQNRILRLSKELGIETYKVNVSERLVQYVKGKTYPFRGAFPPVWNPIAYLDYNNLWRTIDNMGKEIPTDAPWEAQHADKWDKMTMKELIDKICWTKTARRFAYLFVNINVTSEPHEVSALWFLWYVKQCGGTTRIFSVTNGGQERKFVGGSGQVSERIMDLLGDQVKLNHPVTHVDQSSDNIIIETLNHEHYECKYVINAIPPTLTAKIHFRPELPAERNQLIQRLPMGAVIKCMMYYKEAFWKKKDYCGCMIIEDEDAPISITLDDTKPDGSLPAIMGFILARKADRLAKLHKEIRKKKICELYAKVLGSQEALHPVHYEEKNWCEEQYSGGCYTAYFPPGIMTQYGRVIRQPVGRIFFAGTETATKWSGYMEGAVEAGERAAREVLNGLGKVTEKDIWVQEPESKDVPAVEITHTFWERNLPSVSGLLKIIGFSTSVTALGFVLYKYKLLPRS
The settings on record: functionally related monoamine oxidase; read-out: IC50 against MAO-A; cited from earlier work.

For another assay, the target named is T2, MAO-3 (Homo sapiens, UniProt P27338).
T2 sequence (P27338 1-520): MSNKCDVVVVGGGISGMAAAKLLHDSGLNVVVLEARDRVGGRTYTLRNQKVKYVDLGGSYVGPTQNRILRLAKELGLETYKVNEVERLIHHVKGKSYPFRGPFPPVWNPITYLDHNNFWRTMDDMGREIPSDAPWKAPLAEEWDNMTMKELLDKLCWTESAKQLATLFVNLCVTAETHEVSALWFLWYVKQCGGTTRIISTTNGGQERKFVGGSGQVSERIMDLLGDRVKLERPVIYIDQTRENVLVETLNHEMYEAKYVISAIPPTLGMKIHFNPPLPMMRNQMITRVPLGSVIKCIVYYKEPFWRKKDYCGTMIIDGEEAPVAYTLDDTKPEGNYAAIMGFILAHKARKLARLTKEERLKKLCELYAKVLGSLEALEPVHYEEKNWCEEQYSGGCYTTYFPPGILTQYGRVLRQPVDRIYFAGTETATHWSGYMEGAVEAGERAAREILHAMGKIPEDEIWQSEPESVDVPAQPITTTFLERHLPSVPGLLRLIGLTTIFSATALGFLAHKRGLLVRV
Conditions: functionally related monoamine oxidase; read-out: IC50 against MAO-3; cited from earlier work.

Some results are limits rather than exact numbers.

What is called IC50 is the concentration that inhibits the measured activity by half.

For `CC(=O)Nc1nc(CCc2ccc(NC(=N)NN)cc2)c(Cc2ccc(S(C)(=O)=O)cc2)s1` [Compound II], the “reduction of number of accumulated macrophages” value in assay [1] (3 days after laser injury, 0.3 mg/kg BW daily i.p., n=4, p<0.05) is given as 41%. Moreover, in assay [1] (laser injury model, rats), the “effect on accumulation of macrophages in the CNV lesions (in words)” value was “significantly decreased”. Moreover, the “protein level of ICAM-1 in the RPE-choroid complex” value in the assay on ICAM-1 came to 57 ± 2 ng/mg. In addition, in assay [2], the “effect on corneal angiogenesis (in words)” value was “effectively suppresses corneal angiogenesis”. The IC50 (in assay [3]; at MAO-3) was more than 10 µM in each case.
